Reference: patent publication US20040019095A1, “N, N'-dimethylated N-confused porphyrins” (priority 2002, published 2004)

Test: Singlet oxygen test with DPBF (decay of DPBF absorption at 418 nm on irradiation)
Format: physicochemical
Details: solution of DPBF and porphyrin salt irradiated with halogen lamp, filter ~700 nm; b88: four 20 seconds intervals
Description: Alternatively, the ability to generate singlet oxygen may be tested as follows. DPBF (1,3-diphenylisobenzofuran)^8 is used to determine the ability of N,N′-dimethylated N-confused porphyrin salts to generate singlet oxygen. DPBF reacts quickly with singlet oxygen and its absorption decay around 418 nm can be easily monitored. […] A solution containing DPBF and N,N′-dimethylated N-confused porphyrin salts (e.g. compound 9 in FIG. 3) was irradiated with a halogen lamp using a filter (˜700 nm), and monitored by UV-vis spectroscopy at 418 nm.
Pyrrole (Acros) was distilled from CaH2 before use. The silica gel was 230-400 mesh Silicycle). Activity III basic alumina was obtained by adding 6% water to activity I Brockman basic alumina, 60-325 mesh (Fisher). All other materials and solvents were used as received. The NMR spectra were recorded on a Bruker WH-400 or a Bruker AV-400 in the solvents indicated and were referenced to residual solvent peaks. Elemental analyses were performed on a Carlo Erba Elemental Analyzer1108. The UV-vis spectra were measured on a Cary 50. Mass spectra were determined on a KRATOS Concept IIHQ hybrid mass spectrometer. Irradiations were carried with a 250 W Osram HLX 64655 […] in an Oriel lamp housing (model 66184). The light output passed through a glass filter: P70-700-S-Corion. […]

Question: For “N,N′-Dimethylated 2-aza-5,10,15,20-tetra(p-tolyl)-21-carba-porphyrin.HI [compound 9]”, which “decay of UV-vis signal at 418 nm (singlet oxygen generation)” value is on record?
Answer: Substantial decay
